Experimental data: article PMC6367500, “18β-glycyrrhetyl-3-O-sulfate would be a causative agent of licorice-induced pseudoaldosteronism” (Scientific Reports, 2019)

What was measured:
[1] = Concentrations of GL metabolites in plasma of a patient with pseudoaldosteronism (LC-MS/MS); format: in vivo, human
Source text: The patient was a person who had taken a Kampo formula containing licorice for 3 years (1.5 g of licorice for 1 year and 2 months, and 3 g for 1 year and 10 months). On day 0, we found a low plasma potassium level (2.1 mEq/l) and a high creatinine kinase level (364 U/l). Since low plasma renin activity and a low aldosterone level were also found, the patient was diagnosed with pseudoaldosteronism due to licorice. The administration of the Kampo formula was stopped and potassium supplementation of up to 100 mEq/day was started. In the plasma collected on day 0, we detected compound 3 at 8.6 µM, GA at 1.3 µM, and 2 at 87 nM, while 1, GL and 3MGA were not detected. On day 5, the plasma potassium level was still 2.1 mEq/l and potassium supplementation was continued. However, the plasma concentrations of 3 and GA had decreased to 3.6 µM and 0.65 µM, respectively. 2, 1, GL, and 3MGA were not detected. On day 13, the plasma potassium level was increased to 2.8 mEq/l, and the concentrations of 3 and GA were 61 nM and 11 nM, respectively. On day 14, the plasma potassium level was 3.4 mEq/l, and the concentration of 3 was 57 nM; GA was not detected. On day 18, the plasma potassium level had recovered to a normal level (4.9 mEq/l), so potassium supplementation was stopped.
Female SD rats or EHBRs (9-week-old) were anesthetized by an intraperitoneal (i.p.) injection of urethane (1 g/kg) and their jugular veins were exposed. GA suspended in 0.5% CMC was then administered orally (200 mg/kg) to the unconscious rats, and blood samples were collected from the jugular vein; urine samples were collected using a metabolic cage at an appropriate time over a 12-h period. […] Feces were homogenized in phosphate-buffered saline (PBS; 0.15 M, pH 7.2), centrifuged (1.2 × 10^4 g, 10 min), and the supernatants were collected. After 1 week as a washout period, female SD rats were anesthetized by an i.p. injection of urethane (1 g/kg) and their biliary tract was cannulated. GA (0.2 mg/kg) was injected into the jugular vein, and the bile was collected every hour for 4 h. Aliquots (10 µl) of plasma, urine, homogenate of feces, or bile were mixed with 20 µl of subtilisin (0.91 U/ml) and incubated at 37 °C for 30 min, followed by the addition of 70 µl of astragaloside IV solution (1 µg/ml in ethanol containing 0.5% formic acid, used as internal standard), and kept at −20 °C for 30 min. […] The transitions (precursor to daughter) monitored and retention times were as follows: ESI(+) 743.4 to 567.5 m/z for compound 1 (5.5 min), ESI(−) 565.5 to 96.5 m/z for 2 (6.2 min), ESI(−) 549.5 to 96.5 m/z for 3 (8.1 min), ESI(+) 647.6 to 453.6 m/z for 3MGA (9.2 min), ESI(+) 471.3 to 91.0 m/z for GA (8.8 min), ESI(+) 823.5 to 453.6 m/z for GL (10.8 min), and ESI(+) 785.4 to 143.0 m/z for astragaloside IV (3.0 min). Linear regressions over the concentration range of 32 nM to 20 µM for each compound were examined using the peak-area ratio of the compounds to their internal standards and the least-squares method (r^2 > 0.98).
The patient was a person. They provided written informed consent to the use of their blood and urine samples for this study, which was approved by the Independent Ethics Committee of Kameda General Hospital, in accordance with the Declaration of Helsinki. Their anamnesis was follows: hypertension, systemic lupus erythematosus, and antiphospholipid antibody syndrome (for 15 years), necrotic pulmonary aspergillosis (6 years ago), cerebral infarction (14 and 4 years ago, two times), and stomach cancer (3 years ago). After the operation for stomach cancer, the patient had been treated with Kracie Juzentaihoto Extract Granules for Ethical Use (Kracie Pharmaceuticals., Tokyo, Japan). […]

[2] = test system: anti-3MGA-mAb; assay: Dot-blot analysis using anti-3MGA-mAb; format: binding; settings: 1 µg spotted on PES membrane, imaging analysis
Experimental: We confirmed the cross-reactivity of anti-3MGA-mAb against these GL metabolites. GL, GA, 3MGA, and compounds 1, 2, and 3 (1 µg each) were spotted on a polyethersulfone (PES) membrane, fixed onto the membrane, and colored using an anti-3MGA-mAb (Fig. 5A). […] Thus, the anti-3MGA-mAb cross-reacted to some extent with other metabolites of GL.
(§1) Figure 5 Dot-blot analysis and ELISA detection range of GL metabolites using anti-3MGA-monoclonal antibody (mAb). GL metabolites (1 µg each) were spotted on a PES membrane, and colored using an anti-3MGA-mAb (A). Competitive ELISA using anti-3MGA-mAb for GL metabolites was performed. Data are represented from a single analysis (n = 1) (B). […] Data are represented as mean ± S.D. (n = 3). Two-way ANOVA indicated a significant difference between GA and 3 (F1,36 = 4441, P < 0.001), concentrations (F8,36 = 315, P < 0.001), and their interactions (F8,36 = 281, P < 0.001). The calibrated line for the absorbance-concentration profile of 3 was calculated by the linear least-squares method, and the regression formula is shown in graph (C).
Anti-3MGA-mAb and 3MGA-human serum albumin (HSA)-conjugate were developed by the same protocols established in our previous studies[22],[23]. GL, GA, 3MGA, 1, 2, and 3 (1 µg each) were spotted on a Mustang^TM E positively charged PES membrane (Pall Co., East Hills, NY, USA). The membrane was then immersed into 0.1 M MES buffer (pH 4.7) containing 2% EDC and 1% NHS, and kept at room temperature for 1 h to activate the carboxyl group. After washing with distilled water, PBS containing 1% bovine serum albumin (BSA) was added to the membrane, which was shaken at room temperature for 2 h for fixation. Next, the membrane was blocked with PBS containing 5% skim milk (Morinaga-milk, Tokyo, Japan) and 0.1% Tween 20 at 4 °C overnight to reduce nonspecific adsorption. After washing twice with PBS containing 0.1% Tween 20 (T-PBS) for 5 min, the membrane was incubated with anti-3MGA-mAb and kept at room temperature for 3 h with constant agitation. The membrane was then washed twice with T-PBS for 5 min and treated with 1:500 diluted horseradish peroxidase (HRP)-labeled goat anti-mouse IgG (whole molecule; Sigma, St. Louis, MO, USA) antibody in T-PBS for 1 h with gentle shaking. Finally, the membrane was washed twice with T-PBS and once with PBS, and exposed to 1 mg/ml of freshly prepared 4-chloro-1-naphthol-0.03% H2O2 in PBS for 15 min at room temperature. The reaction was stopped by washing with distilled water, and the immunostained PES membrane was allowed to dry and then photographed. The positively stained areas were measured using Image J 1.46r (http://imageJ.nih.gov/ij).

[3] = test system: anti-3MGA-mAb; assay: Competitive ELISA using anti-3MGA-mAb; format: binding; settings: specificity to 3MGA calibrated to 100%, n = 1
Experimental: as §1
When the specificity of the mAb to 3MGA was calibrated to 100%, the cross-reactivity for GL, GA, 1, 2, and 3 was 0.23%, 2.2%, 4.8%, 4.0%, and 23%, respectively. […] We confirmed the selectivity of the anti-3MGA-mAb in discriminating between 3 and GA and established the detectable measurement range for 3 in this ELISA system.
3MGA-HSA (1 µg/ml in 50 mM carbonate buffer, pH 9.6) was added into a 96-well plate (Nagel Nunc, Penfield, NY, USA) (100 µl in a well) and incubated at 37 °C for 1 h. After the removal of 3MGA-HSA, the wells were washed three times with T-PBS (200 µl in a well). The wells were incubated with 300 µl in a well of 5% skim milk at 4 °C overnight. After the wells had been washed with T-PBS three times, the sample solution diluted with Can Get Signal® Solution 1 (Toyobo Co., Ltd., Osaka, Japan) (50 µl in a well) and anti-3MGA-mAb (1:4,000 dilution with Can Get Signal® Solution 1) (50 µl in a well) were added to the wells, and the plate was incubated at 37 °C for 1 h. After the wells had been washed with T-PBS three times, HRP-labeled goat anti-mouse IgG (Fc specific) antibody (Sigma, 1:20,000 dilution with Can Get Signal® Solution 2) was added into the wells (100 µl in a well) and the plate was incubated at 37 °C for 1 h. Next, the wells were washed with T-PBS three times and the substrate solution (3,3′,5,5′-tetramethylbensidine, TMB solution; Fujifilm Wako Pure Chemical Corporation, Osaka, Japan) was added to the wells (100 µl in a well), followed by incubation at room temperature for 5 min. Then, the stop solution (0.5 M sulfuric acid) was added to the wells (100 µl in a well) and the optical density was measured at 450 nm/630 nm.

plasma concentration, day 0 ([1]; patient with licorice-induced pseudoaldosteronism, day 0): not detected
plasma concentration, day 5 ([1]; patient, 5 days after stopping the Kampo formula): not detected
SMILES: CC1(C)[C@@H](O[C@H]2O[C@H](C(=O)O)[C@@H](O)[C@H](O)[C@H]2O[C@@H]2O[C@H](C(=O)O)[C@@H](O)[C@H](O)[C@H]2O)CC[C@]2(C)[C@H]3C(=O)C=C4[C@@H]5C[C@@](C)(C(=O)O)CC[C@]5(C)CC[C@@]4(C)[C@]3(C)CC[C@@H]12 [GL, glycyrrhizin, reference compound]
area of positive staining in dot-blot [2]: not detectable
cross-reactivity of anti-3MGA-mAb [3]: 0.23%
